The structures appear in SMILES notation.

One experiment deals with Beta-lactamase (Pseudomonas aeruginosa, UniProt Q932Y6). Description: concentration-dependent VIM-2 enzyme inhibition – biochemical, epi-absorbance readout, selective inhibitors, dose response (AID 1919).
Beta-lactamase, sequence (Q932Y6 whole entry): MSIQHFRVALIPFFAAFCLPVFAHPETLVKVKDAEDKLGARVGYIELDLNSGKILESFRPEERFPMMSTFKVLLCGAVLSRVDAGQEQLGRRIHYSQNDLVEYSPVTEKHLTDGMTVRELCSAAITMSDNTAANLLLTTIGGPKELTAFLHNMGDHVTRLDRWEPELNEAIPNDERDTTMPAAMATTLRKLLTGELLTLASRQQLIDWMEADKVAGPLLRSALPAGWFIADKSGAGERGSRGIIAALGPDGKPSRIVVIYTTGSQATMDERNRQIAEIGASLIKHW
Turning to `Cn1c(-c2sccc2OCc2ccc(Cl)cc2Cl)n[nH]c1=S`, the midpoint of inhibition, the IC50, lay at 6.63 µM.

The next experiment has as its target VIM-2 metallo β-lactamase (Pseudomonas aeruginosa, UniProt Q9K2N0). The description is as above.
In the case of `COc1ccc(OC)c(C2C(C(=O)c3ccco3)C(=O)C(=O)N2Cc2cccnc2)c1` (stereo not drawn) [2-(2,5-dimethoxyphenyl)-3-(furan-2-carbonyl)-4-hydroxy-1-(pyridin-3-ylmethyl)-2H-pyrrol-5-one], half-maximal inhibition (IC50) was put at 1.94 µM.
`O=C1C(=O)N(Cc2cccnc2)C(c2ccccn2)C1C(=O)c1cccs1` (stereo not drawn) [3-hydroxy-5-(2-pyridinyl)-1-(3-pyridinylmethyl)-4-(2-thienylcarbonyl)-1,5-dihydro-2H-pyrrol-2-one] returned an IC50 of 13.2 µM.
With `COc1ccc(C(=O)C2C(=O)C(=O)N(Cc3ccco3)C2c2cc(OC)ccc2OC)cc1` (stereo not drawn) [(4E)-5-(2,5-dimethoxyphenyl)-1-(2-furanylmethyl)-4-[hydroxy-(4-methoxyphenyl)methylidene]pyrrolidine-2,3-dione], the IC50 was 12.8 µM.
`O=C1C(=O)N(Cc2cccnc2)C(c2ccccn2)C1C(=O)c1ccc(F)cc1` (stereo not drawn) [(4Z)-4-[(4-fluorophenyl)-hydroxy-methylene]-5-(2-pyridyl)-1-(3-pyridylmethyl)pyrrolidine-2,3-quinone] showed a half-maximal inhibitory concentration (IC50) of 2.42 µM.
`O=C1C(=O)N(Cc2cccnc2)C(c2ccccn2)C1C(=O)c1ccccc1` (stereo not drawn) [(4Z)-4-[hydroxy(phenyl)methylene]-5-(2-pyridyl)-1-(3-pyridylmethyl)pyrrolidine-2,3-quinone] showed an IC50 of 5 µM.
The compound `COc1cc(OC)c(OC)cc1C=NNC(=O)Cc1c(C)[nH][nH]c1=O` [MLS000555854] came in with an IC50 of 4.22 µM.
`COc1ccc(OC)c(C=NNC(=O)Cc2c(C)[nH][nH]c2=O)c1` [SMR000147372] registered an IC50 of 6.1 µM.

By IC50 is commonly meant the concentration at which inhibition is half-maximal. The low end stands for higher potency, the high end for lower potency.

Source of the values: BindingDB's records for doi:10.7270/Q2X63KBQ (The Scripps Research Institute Molecular Screening Center, 2009).
